1 molecule from paper PMC12250302, “Synthesis, Antimicrobial Activities, and Model of Action of Novel Tetralone Derivatives Containing Aminoguanidinium Moiety” (International Journal of Molecular Sciences, 2025) can be followed below.

Assay [1] relates to P. aeruginosa ATCC 27853. Nature of the assay: MIC and MBC testing, broth microdilution. It is filed as cell-based, Pseudomonas aeruginosa. As to conditions: Pseudomonas aeruginosa. The method in brief: (§1)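 Two-fold serial dilutions of compounds (DMSO stocks) in MH broth, inoculated with log-phase bacteria at 1 × 10^6 CFU/mL and incubated 18 h at 37 °C. MIC is the lowest concentration with no visible growth; triplicates. Levofloxacin positive, 0.1% DMSO negative control.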
For orientation: Dilution methods test growth across graded concentrations, often in twofold steps.

Assay [2] concerns S. aureus (ATCC 29213). Description: Growth curve (OD600). As to conditions: 2D 0.5, 1, 2, 4, 8 µg/mL, vancomycin 0.5 and 1 μg/mL. Type of assay: cell-based, Staphylococcus aureus. How it is done:
(§2) The growth inhibition and time-dependent killing abilities of 2D were evaluated against S. aureus (ATCC 29213) and MRSA-2. After culturing the strains in MH broth until the logarithmic growth phase, they were diluted with MH broth to 1 × 10^6 CFU/mL. […] OD600 values were measured at predetermined time intervals (0, 1, 2, 4, 6, 8, 10, 12, and 24 h).

Assay [3] relates to MRSA-2. Nature of the assay: Growth curve (OD600). It is filed as cell-based, Staphylococcus aureus. As to conditions: 2D 0.5, 1, 2, 4, 8 µg/mL, vancomycin 0.5 and 1 μg/mL. The method, then: as §2
Assay [4] concerns E. coli ATCC 25922. Nature of the assay: MIC and MBC testing, broth microdilution. Type of assay: cell-based, Escherichia coli. As to conditions: Escherichia coli. The method in brief:
as §1

The subject of assay [5] is MRSA-2. Description: Bacterial DNA and protein leakage experiment. It is filed as cell-based, Staphylococcus aureus. The note with it: compared with the control group; 4 h. The method, then:
MRSA-2 was cultured to logarithmic growth phase. The bacterial precipitate was collected, washed twice with PBS (pH = 7.2–7.4), and resuspended in PBS to 1 × 10^7 CFU/mL. […] After centrifugation of 1 mL of the suspension, the supernatant was collected. The protein level was measured by BCA protein concentration kits (Servicebio, Hubei, China), and the DNA level was detected by microspectrophotometer.

For assay [6], the system named is E. faecium ATCC 35667. Description: MIC and MBC testing, broth microdilution. The note with it: Enterococcus faecium, ATCC35667, E. faecium ATCC 35667. It is filed as cell-based, Enterococcus faecium. In outline:
as §1

In brackets after ≈: the same amount, converted by molar mass.

Usually MIC stands for the least concentration at which growth counts as inhibited. Broadly, the MBC is the lowest tested concentration that kills the bacteria rather than only halting them. Consider `[H]/N=C(\N)NN=C1CCCc2cc(OCCCCCCC)ccc21` [Compound 2D, (E)-2-(6-(heptyloxy)-3,4-dihydronaphthalen-1(2H)-ylidene)hydrazine-1-carboximidamide], for which the MIC in assay [1] (ATCC27853, 18 h, read-out: MIC) came to 16 µg/mL (≈ 50.6 µM); in assay [4] (ATCC25922, 18 h, read-out: MIC), 4 µg/mL (≈ 12.6 µM); in assay [6] (18 h, read-out: MIC), 2 µg/mL (≈ 6.32 µM). Moreover, the minimal bactericidal concentration (MBC) is 32 µg/mL (≈ 101 µM) in assay [1] (ATCC27853, read-out: MBC); 8 µg/mL (≈ 25.3 µM) in assay [4] (ATCC25922, read-out: MBC); 4 µg/mL (≈ 12.6 µM) in assay [6] (read-out: MBC). Also, the “growth inhibition (growth curve)” value in assay [2] and in assay [3] was “able to suppress the growth” in each case. Further, in assay [5], the “content of extracellular DNA” value was “significantly increased”. Besides, the “content of extracellular protein” value in assay [5] was “significantly increased”.
